Measured values as given in patent publication US10533015B1, “Opioid receptor antagonist prodrugs” (Nirsum Laboratories, Inc., priority 2019, dated 2020).
Like-named read-outs stand apart in the source and are kept apart here.

What was measured:
[1] = Plasma stability assay, rat plasma; format: in vitro ADME; conditions: 10 μM, 37° C.
Procedure: Plasma stability determination of the test compounds in rat, dog, cynomolgus monkey and human plasma is performed using HPLC-MS. For rat, incubations are carried out in 96-well polypropylene plates in 5 aliquots of 70 μL each (one for each time point). […] Five time points are analyzed (0, 15, 120, 480 and 1440 min). For dog, monkey and human, test compounds (2 μM, final solvent concentration 1%) were also incubated at 37° C. and analyzed at five time points (0, 10, 30, 60 and 120 min). All incubations are performed in duplicates. The samples are analyzed by HPLC-MS. The percentage of parent compound remaining after incubation in plasma is determined.

[2] = Polymorph screening of solid state drug substances; conditions: for Dry method and appearance: after stirring 50 °C 72 hours, dried solid; for XRPD results (Dried): dried solid after 50 °C 72 hours; for Visual observation 50° C. / Visual observation RT: target conc. 100 mg/ml
[3] = heating temp. 40 °C, obs. temp. 40 °C
[4] = heating temp. 60 °C, obs. temp. 25 °C
[5] = heating temp. 60 °C, obs. temp. 40 °C

C=C1CC[C@@]2(O)C3Cc4ccc(OC(=O)OCCCCCCCCCC)c5c4[C@@]2(CCN3CC2CC2)[C@H]1O5 [Compound 18, (4aS,7aS,12bS)-3-(cyclopropylmethyl)-4a-hydroxy-7-methylene-2,3,4,4a,5,6,7,7a-octahydro-1H-4,12-methanobenzofuro[3,2-e]isoquinolin-9-yl decyl carbonate]
% remaining at time point ([1]; 0 min): 100% | % remaining at time point ([1]; 15 min): 0.6% | % remaining at time point ([1]; 120 min): 0.3% | % remaining at time point ([1]; 480 min): 0.1% | % remaining at time point ([1]; 1440 min): 0% | Approximate Solubility (mg/mL) in Excipient: Cottonseed oil [3]: >403 mg/mL | Approximate Solubility (mg/mL) in Excipient: Cottonseed oil [4]: >400 mg/mL | Approximate Solubility (mg/mL) in Excipient: Ethanol [3]: >209 mg/mL | Approximate Solubility (mg/mL) in Excipient: Sesame oil [3]: >403 mg/mL | Approximate Solubility (mg/mL) in Excipient: Sesame oil [4]: >402 mg/mL | Equilibrium solubility (mg/mL) Water [3]: <0.0002 mg/mL

CCCCCCCCCCCCCCCCCCCC(=O)Oc1ccc2c3c1O[C@H]1C(=O)CC[C@@]4(O)C(C2)N(CC2CC2)CC[C@]314 [Compound 50, (4aS,7aR,12bS)-3-(cyclopropylmethyl)-4a-hydroxy-7-oxo-2,3,4,4a,5,6,7,7a-octahydro-1H-4,12-methanobenzofuro[3,2-e]isoquinolin-9-yl iconsanoate]
% remaining at time point ([1]; 0 min): 100% | % remaining at time point ([1]; 15 min): 114.5% | % remaining at time point ([1]; 120 min): 102.7% | % remaining at time point ([1]; 480 min): 83.3% | % remaining at time point ([1]; 1440 min): 73.9% | Approximate Solubility (mg/mL) in Excipient: Cottonseed oil [4]: <51 mg/mL | Approximate Solubility (mg/mL) in Excipient: Sesame oil [4]: <52 mg/mL | Equilibrium solubility (mg/mL) Water [3]: <0.001 mg/mL

CCCCC/C=C\C/C=C\CCCCCCCC(=O)Oc1ccc2c3c1O[C@H]1C(=O)CC[C@@]4(O)C(C2)N(CC2CC2)CC[C@]314 [Compound 53, (4aS,7aR,12bS)-3-(cyclopropylmethyl)-4a-hydroxy-7-oxo-2,3,4,4a,5,6,7,7a-octahydro-1H-4,12-methanobenzofuro[3,2-e]isoquinolin-9-yl (9Z,12Z)-octadeca-9,12-di.enoate]
% remaining at time point ([1]; 0 min): 100% | % remaining at time point ([1]; 15 min): 46.85% | % remaining at time point ([1]; 120 min): 19.6% | % remaining at time point ([1]; 480 min): 7.3% | % remaining at time point ([1]; 1440 min): 1.9% | Approximate Solubility (mg/mL) in Excipient: Cottonseed oil [4]: >408.5 mg/mL | Approximate Solubility (mg/mL) in Excipient: Sesame oil [4]: >401.9 mg/mL | Approximate Solubility (mg/mL) in Excipient: Sesame oil [5]: >406.3 mg/mL

C=C1CC[C@@]2(O)C3Cc4ccc(OCOC(=O)OCCCCCCCCCCCCCC)c5c4[C@@]2(CCN3CC2CC2)[C@H]1O5 [Compound 25, (((4aS,7aS,12bS)-3-(cyclopropylmethyl)-4a-hydroxy-7-methylene-2,3,4,4a,5,6,7,7a-octahydro-1H-4,12-methanobenzofuro[3,2-e]isoquinolin-9-yl)oxy)methyl tetradecyl carbonate]
% remaining at time point ([1]; 0 min): 100% | % remaining at time point ([1]; 15 min): 82.6% | % remaining at time point ([1]; 120 min): 69.3% | % remaining at time point ([1]; 480 min): 62.2% | % remaining at time point ([1]; 1440 min): 51.7% | Approximate Solubility (mg/mL) in Excipient: Cottonseed oil [4]: >414 mg/mL | Equilibrium solubility (mg/mL) Water [3]: <0.001 mg/mL

CCCCCCCCOC(=O)Oc1ccc2c3c1O[C@H]1C(=O)CC[C@@]4(O)C(C2)N(CC2CC2)CC[C@]314 [Compound 23, (4aS,7aR,12bS)-3-(cyclopropylmethyl)-4a-hydroxy-7-oxo-2,3,4,4a,5,6,7,7a-octahydro-1H-4,12-methanobenzofuro[3,2-e]isoquinolin-9-yl octyl carbonate]
% remaining at time point ([1]; 0 min): 100% | % remaining at time point ([1]; 15 min): 0% | % remaining at time point ([1]; 120 min): 0% | % remaining at time point ([1]; 480 min): 0% | % remaining at time point ([1]; 1440 min): 0%

C=C1CC[C@@]2(O)C3Cc4ccc(OC(=O)CCCCCCCCCCCCCCCCCCC)c5c4[C@@]2(CCN3CC2CC2)[C@H]1O5 [Compound 16, (4aS,7aS,12bS)-3-(cyclopropylmethyl)-4a-hydroxy-7-methylene-2,3,4,4a,5,6,7,7a-octahydro-1H-4,12-methanobenzofuro[3,2-e]isoquinolin-9-yl icosanoate]
Dry method and appearance ([2]; Acetone): Evaporation/white powder | XRPD results (Dried) ([2]; Acetone): Pattern A | Visual observation 50° C. ([2]; Acetone): Clear | Visual observation RT ([2]; Acetone): Slurry | Dry method and appearance ([2]; EtOAc): Evaporation/white powder | XRPD results (Dried) ([2]; EtOAc): Pattern A | Visual observation 50° C. ([2]; EtOAc): Clear | Visual observation RT ([2]; EtOAc): Slurry | Dry method and appearance ([2]; Heptane): Centrifugation/white powder | XRPD results (Dried) ([2]; Heptane): Pattern A | Visual observation 50° C. ([2]; Heptane): Slurry | Visual observation RT ([2]; Heptane): Slurry | Dry method and appearance ([2]; Isopropanol): Centrifugation/white powder | XRPD results (Dried) ([2]; Isopropanol): Pattern A | Visual observation 50° C. ([2]; Isopropanol): Slurry | Visual observation RT ([2]; Isopropanol): Slurry | Dry method and appearance ([2]; MTBE): Evaporation/white powder | XRPD results (Dried) ([2]; MTBE): Pattern A | Visual observation 50° C. ([2]; MTBE): Clear | Visual observation RT ([2]; MTBE): Clear | Approximate Solubility (mg/mL) in Excipient: Cottonseed oil [3]: 57 to 67 mg/mL | Approximate Solubility (mg/mL) in Excipient: Cottonseed oil [5]: 201 to 403 mg/mL | Approximate Solubility (mg/mL) in Excipient: Ethanol [3]: <25 mg/mL | Approximate Solubility (mg/mL) in Excipient: Sesame oil [3]: 68 to 81 mg/mL | Approximate Solubility (mg/mL) in Excipient: Sesame oil [5]: 202 to 404 mg/mL

C=C1CC[C@@]2(O)C3Cc4ccc(OC(=O)OCCCCCCCCCCC)c5c4[C@@]2(CCN3CC2CC2)[C@H]1O5 [Compound 3, (4aS,7aS,12bS)-3-(cyclopropylmethyl)-4a-hydroxy-7-methylene-2,3,4,4a,5,6,7,7a-octahydro-1H-4,12-methanobenzofuro[3,2-e]isoquinolin-9-yl undecyl carbonate]
Solubility by volumetric flask method: Cottonseed oil (Volumetric flask method, cottonseed oil, heating temp. 60 °C, obs. temp. 25 °C): >399.12 mg/mL | Solubility by volumetric flask method: Sesame oil (Volumetric flask method, sesame oil, heating temp. 60 °C, obs. temp. 25 °C): >400.7 mg/mL | Equilibrium solubility (mg/mL) Water (section 'Solubility by volumetric flask method', heating temp. 40 °C, obs. temp. 40 °C): <0.001 mg/mL

C=C1CC[C@@]2(O)C3Cc4ccc(OC(=O)OCCCCCCCCCCCCCCCCCC)c5c4[C@@]2(CCN3CC2CC2)[C@H]1O5 [Compound 33, (4aS,7aS,12bS)-3-(cyclopropylmethyl)-4a-hydroxy-7-methylene-2,3,4,4a,5,6,7,7a-octahydro-1H-4,12-methanobenzofuro[3,2-e]isoquinolin-9-yl octadecyl carbonate]
Approximate Solubility (mg/mL) in Excipient: Cottonseed oil [4]: <50 mg/mL | Approximate Solubility (mg/mL) in Excipient: Sesame oil [4]: <51 mg/mL | Equilibrium solubility (mg/mL) Water [3]: <0.001 mg/mL

C=C1CC[C@@]2(O)C3Cc4ccc(OC(=O)OCCCCCCCC)c5c4[C@@]2(CCN3CC2CC2)[C@H]1O5 [Compound 17, (4aS,7aS,12bS)-3-(cyclopropylmethyl)-4a-hydroxy-7-methylene-2,3,4,4a,5,6,7,7a-octahydro-1H-4,12-methanobenzofuro[3,2-e]isoquinolin-9-yl octyl carbonate]
% remaining at time point ([1]; 0 min): 100% | % remaining at time point ([1]; 15 min): 0% | % remaining at time point ([1]; 120 min): 0% | % remaining at time point ([1]; 480 min): 0% | % remaining at time point ([1]; 1440 min): 0%

CCCCCCCCCCCC(=O)OCOc1ccc2c3c1O[C@H]1C(=O)CC[C@@]4(O)C(C2)N(CC2CC2)CC[C@]314 [Compound 48, (((4aS,7aR,12bS)-3-(cyclopropylmethyl)-4a-hydroxy-7-oxo-2,3,4,4a,5,6,7,7a-octahydro-1H-4,12-methanobenzofuro[3,2-e]isoquinolin-9-yl)oxy)methyl dodecanoate]
Approximate Solubility (mg/mL) in Excipient: Cottonseed oil [4]: >410.5 mg/mL

C=C1CC[C@@]2(O)C3Cc4ccc(OC(=O)OCCCCCCCCCCCCCCCCCCCC)c5c4[C@@]2(CCN3CC2CC2)[C@H]1O5 [Compound 28, (4aS,7aS,12bS)-3-(cyclopropylmethyl)-4a-hydroxy-7-methylene-2,3,4,4a,5,6,7,7a-octahydro-1H-4,12-methanobenzofuro[3,2-e]isoquinolin-9-yl icosyl carbonate]
Approximate Solubility (mg/mL) in Excipient: Cottonseed oil [4]: <50.2 mg/mL | Approximate Solubility (mg/mL) in Excipient: Sesame oil [4]: <50.6 mg/mL | Equilibrium solubility (mg/mL) Water [3]: <0.001 mg/mL

Enalapril maleate salt [reference compound]
% remaining at time point ([1]; 0 min): 100% | % remaining at time point ([1]; 15 min): 44% | % remaining at time point ([1]; 120 min): 2.9% | % remaining at time point ([1]; 480 min): 8.2% | % remaining at time point ([1]; 1440 min): 4.8%
